We go through 2 compounds from US20260337125A1, “RADIOLABELED TYROSINE DERIVATIVE AND APPLICATION THEREOF” (Osaka University, priority 2022, published 2026).

Molecules are shown by their SMILES.

Data set [1] has as its system CDDP-resistant A549 (A549 CDDP-r). Particulars: 48 hours, 37 °C, Cell counting kit-8. On the procedure: Two days before experiment, A549 and CDDP-resistant A549 (A549 CDDP-r) were each seeded in a 96-well plate at a concentration of 1×10^5 cells/mL. ^211At-AAMT-OMe or ^211At-AAMT adjusted to a predetermined concentration was added to A549 cells and CDDP-resistant A549 cells, respectively, and the cells were cultured (CO2 5%, 37 °C). After the cultivation for 48 hours, Cell counting kit-8 (DOJINDO LABORATORIES) was added. After the addition, the cells were cultured at 37 °C for 1 hour, and cell viability was measured using absorbance at 450 nm as an indicator.
(In general: Formazan colour is commonly taken as a measure of viable cells.)

The conditions of data set [2]: background art; cited from earlier work.
Data set [3] in a line: Measurement of accumulated amounts of 211At-labeled compounds in PANC1 tumor-bearing mice. Type of data set: in vivo, human (PANC1) in Balb/c-nu/nu mice. Particulars: tumor, iv, 0.1 MBq/animal, 0.1 MBq/0.2 mL per mouse, tail vein, read-out: tumor accumulation. How it is done:
Radiation doses before and after the administration were measured, and a difference between them was defined as an injected dose (ID). Ten minutes and one hour after administration, the mice were anesthetized by isoflurane inhalation, the tumors were isolated by autopsy in chronological order, and their radiation doses and weights were measured using a gamma counter (2480 Wizard^2, PerkinElmer) and a semimicro scale (Shimadzu Corporation, readability 10 μg), respectively. For comparison between accumulated amounts, accumulated amounts per unit amount (% ID/g) were calculated.
In Table 1, the amounts of the ^211At-labeled compounds accumulated in tumors of the PANC1 tumor-bearing models (% ID/g) are shown. It should be noted that in Table 1, “OMe” is ^211At-AAMT-OMe, “OEt” is ^211At-AAMT-OEt, “OPr” is ^211At-AAMT-OPr, and “OH” is ^211At-AAMT.

Data set [4] deals with human pancreatic cancer cell line (PANC1). Kind of data set: Imaging of mice subcutaneously transplanted with human pancreatic cancer cell line PANC1. Particulars: 2 hours after administration, 0.5 MBq/0.2 mL per mouse, tail vein. The data set is classed as in vivo, human (PANC1) in Balb/c-nu/nu mice.
Excerpt: Immunodeficient mice (Balb/c-nu/nu, 5-week-old, male) were habituated for 1 week and then subcutaneously transplanted with a human pancreatic cancer cell line (PANC1, 1×10^7 cells/mouse). After the transplantation, the mice were observed over time until tumor reached a size large enough for imaging (about 1000 mm^3). […] Two hours after administration, the mice were anesthetized by isoflurane inhalation, and planar images were taken using a γ camera (E-cam, Siemens).
The test system of data set [5] is gemcitabine-resistant human pancreatic cancer cell line, PANC1 (PANC1 Gem-r). Kind of data set: Cell viability of Gemcitabine-resistant PANC1 (PANC1 Gem-r) with gemcitabine. Type of data set: cell-based. Particulars: gemcitabine 30 μg/mL. On the procedure:
Gemcitabine (Gem) was added to a human pancreatic cancer cell line, PANC1 at an initial concentration of 100 ng/mL. After 3 days, dead cells were removed, and gemcitabine was again added. Cells that grew like a human pancreatic cancer cell line, PANC1 even in the presence of gemcitabine were isolated and maintained for 3 months while gradually increasing the concentration of gemcitabine in a culture medium.

In the case of `C[C@](N)(Cc1ccc(O)c([At])c1)C(=O)O` [^211At-AAMT, astato(^211At)-α-methyl-L-tyrosine, reference compound], in data set [1], the cytotoxicity result is “has cytotoxicity against CDDP-resistant A549 (A549 CDDP-r)”. In data set [2], the clearance result is recorded as “fast clearance”. The tissue uptake at 10 min in data set [3] (10 minutes after administration) is 0.29 %ID/g. The tissue uptake at 1 h in data set [3] (1 hour after administration) turned out to be 2.49 %ID/g. Further, in data set [4], the “accumulation in tumor site (planar γ camera image)” value is listed as “accumulated in the tumor sites”.
As for `Nc1ccn([C@@H]2O[C@H](CO)[C@@H](O)C2(F)F)c(=O)n1` [gemcitabine, Gemcitabine], the cell viability result in data set [5] is given as “still alive even at 30 μg/mL”.
